In PubChem BioAssay AID2060491 (Molecular Pharmacology Branch, DTP, NCI, 2025):
Values belong to the molecule of their own block, whether it stands above or below them.

System: 857933-349-R-J2-PDC complex spheroids, viability
Experiment: Anticancer human tumor 857933-349-R-J2-PDC patient-derived colon adenocarcinoma cell line growth inhibition [GQUAD]
Settings: for IC50: curve of first compound; for viability, T/C: stronger effect = lower value
Outline: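 Tumor cells were grown as complex spheroids with HUVEC endothelial cells and mesenchymal stem cells as stroma. G-quadruplex stabilizers were combined with targeted agents over half-log dilutions from near the clinical Cmax, or from 10 microM.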

[1] = second compound 0.0316 µM, first compound 0.0316 µM
[2] = second compound 0.0316 µM, first compound 0.316 µM
[3] = second compound 0.1 µM, first compound 0.0316 µM
[4] = second compound 0.1 µM, first compound 0.316 µM
[5] = second compound 0.316 µM, first compound 0.0316 µM
[6] = second compound 0.316 µM, first compound 0.316 µM
[7] = second compound 1 µM, first compound 0.0316 µM
[8] = second compound 1 µM, first compound 0.316 µM
[9] = second compound 3.16 µM, first compound 0.0316 µM
[10] = second compound 3.16 µM, first compound 0.316 µM
[11] = second compound 10 µM, first compound 0.0316 µM
[12] = second compound 10 µM, first compound 0.316 µM
[13] = second compound 0.0316 µM, first compound 0.1 µM
[14] = second compound 0.0316 µM, first compound 1 µM
[15] = second compound 0.0316 µM, first compound 3.16 µM
[16] = second compound 0.0316 µM, first compound 10 µM
[17] = second compound 0.1 µM, first compound 0.1 µM
[18] = second compound 0.1 µM, first compound 1 µM
[19] = second compound 0.1 µM, first compound 3.16 µM
[20] = second compound 0.1 µM, first compound 10 µM
[21] = second compound 0.316 µM, first compound 0.1 µM
[22] = second compound 0.316 µM, first compound 1 µM
[23] = second compound 0.316 µM, first compound 3.16 µM
[24] = second compound 0.316 µM, first compound 10 µM
[25] = second compound 1 µM, first compound 0.1 µM
[26] = second compound 1 µM, first compound 1 µM
[27] = second compound 1 µM, first compound 3.16 µM
[28] = second compound 1 µM, first compound 10 µM
[29] = second compound 3.16 µM, first compound 0.1 µM
[30] = second compound 3.16 µM, first compound 1 µM
[31] = second compound 3.16 µM, first compound 3.16 µM
[32] = second compound 3.16 µM, first compound 10 µM
[33] = second compound 10 µM, first compound 0.1 µM
[34] = second compound 10 µM, first compound 1 µM
[35] = second compound 10 µM, first compound 3.16 µM
[36] = second compound 10 µM, first compound 10 µM
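Also: spheroids exposed to compounds for one week before readout.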
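For viability, T/C in this document: percent viability relative to vehicle DMSO wells taken as 100%.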

SMILES: Cc1[nH]c2ccccc2c1CCNCc1ccc(/C=C/C(=O)NO)cc1 + CN(C)c1ccc(Nc2c3ccc(NC(=O)CCN4CCCC4)cc3nc3cc(NC(=O)CCN4CCCC4)ccc23)cc1
IC50 (second compound 0.0316 µM): > 316 nM | IC50 (second compound 0.1 µM): > 316 nM | IC50 (second compound 0.316 µM): > 316 nM | IC50 (second compound 1 µM): > 316 nM | IC50 (second compound 3.16 µM): > 316 nM | IC50 (second compound 10 µM): > 316 nM | viability, T/C (second compound 0.0316 µM, first compound 0.000999 µM): 105% | viability, T/C (second compound 0.0316 µM, first compound 0.00316 µM): 99.6% | viability, T/C (second compound 0.0316 µM, first compound 0.00999 µM): 109% | viability, T/C [1]: 101% | viability, T/C (second compound 0.0316 µM, first compound 0.0999 µM): 109% | viability, T/C [2]: 60.2% | viability, T/C (second compound 0.1 µM, first compound 0.000999 µM): 105% | viability, T/C (second compound 0.1 µM, first compound 0.00316 µM): 102% | viability, T/C (second compound 0.1 µM, first compound 0.00999 µM): 99.3% | viability, T/C [3]: 103% | viability, T/C (second compound 0.1 µM, first compound 0.0999 µM): 101% | viability, T/C [4]: 61.5% | viability, T/C (second compound 0.316 µM, first compound 0.000999 µM): 104% | viability, T/C (second compound 0.316 µM, first compound 0.00316 µM): 103% | viability, T/C (second compound 0.316 µM, first compound 0.00999 µM): 103% | viability, T/C [5]: 99.8% | viability, T/C (second compound 0.316 µM, first compound 0.0999 µM): 117% | viability, T/C [6]: 60.5% | viability, T/C (second compound 1 µM, first compound 0.000999 µM): 97.1% | viability, T/C (second compound 1 µM, first compound 0.00316 µM): 91.7% | viability, T/C (second compound 1 µM, first compound 0.00999 µM): 95.7% | viability, T/C [7]: 97.9% | viability, T/C (second compound 1 µM, first compound 0.0999 µM): 105% | viability, T/C [8]: 59.5% | viability, T/C (second compound 3.16 µM, first compound 0.000999 µM): 80.6% | viability, T/C (second compound 3.16 µM, first compound 0.00316 µM): 79.8% | viability, T/C (second compound 3.16 µM, first compound 0.00999 µM): 93.5% | viability, T/C [9]: 80.6% | viability, T/C (second compound 3.16 µM, first compound 0.0999 µM): 91.7% | viability, T/C [10]: 55.1% | viability, T/C (second compound 10 µM, first compound 0.000999 µM): 64% | viability, T/C (second compound 10 µM, first compound 0.00316 µM): 73.2% | viability, T/C (second compound 10 µM, first compound 0.00999 µM): 70% | viability, T/C [11]: 76.4% | viability, T/C (second compound 10 µM, first compound 0.0999 µM): 72.2% | viability, T/C [12]: 41.7%

IC50 (second compound 0.0316 µM): < 31.6 nM | IC50 (second compound 0.1 µM): < 31.6 nM | IC50 (second compound 0.316 µM): < 31.6 nM | IC50 (second compound 1 µM): < 31.6 nM | IC50 (second compound 3.16 µM): < 31.6 nM | IC50 (second compound 10 µM): < 31.6 nM
SMILES: CC1COCCN1c1cc(-c2ccnn2C)c2ccnc(-c3ccn[nH]3)c2n1 (stereo unspecified) + Cc1cnc(CNC(=O)c2c(=O)c3ccc(N4CCCN(C)CC4)nc3n3c2sc2ccccc23)cn1
viability, T/C [1]: 49.6% | viability, T/C [13]: 33.7% | viability, T/C [2]: 33.5% | viability, T/C [14]: 31.8% | viability, T/C [15]: 38.3% | viability, T/C [16]: 41.4% | viability, T/C [3]: 30.5% | viability, T/C [17]: 25.8% | viability, T/C [4]: 18.4% | viability, T/C [18]: 23.6% | viability, T/C [19]: 31% | viability, T/C [20]: 32.4% | viability, T/C [5]: 12.3% | viability, T/C [21]: 6.9% | viability, T/C [6]: 5.16% | viability, T/C [22]: 5.25% | viability, T/C [23]: 9.22% | viability, T/C [24]: 16% | viability, T/C [7]: 2.71% | viability, T/C [25]: 2.88% | viability, T/C [8]: 2.86% | viability, T/C [26]: 2.6% | viability, T/C [27]: 4.59% | viability, T/C [28]: 8.81% | viability, T/C [9]: 2.08% | viability, T/C [29]: 3.98% | viability, T/C [10]: 2.01% | viability, T/C [30]: 1.59% | viability, T/C [31]: 2.42% | viability, T/C [32]: 5% | viability, T/C [11]: 1.03% | viability, T/C [33]: 0.7% | viability, T/C [12]: 0.73% | viability, T/C [34]: 0.54% | viability, T/C [35]: 1.7% | viability, T/C [36]: 2.18%

IC50 (second compound 0.0316 µM): > 10000 nM | IC50 (second compound 0.1 µM): > 10000 nM | IC50 (second compound 0.316 µM): < 31.6 nM | IC50 (second compound 1 µM): < 31.6 nM | IC50 (second compound 3.16 µM): < 31.6 nM | IC50 (second compound 10 µM): < 31.6 nM
SMILES: COc1ncnc(C2CC2)c1-c1ncc2cnn(Cc3ccc(-c4nc(C(F)(F)F)cn4C(C)C)cc3)c2n1 + Cc1cnc(CNC(=O)c2c(=O)c3ccc(N4CCCN(C)CC4)nc3n3c2sc2ccccc23)cn1
viability, T/C [1]: 108% | viability, T/C [13]: 80.5% | viability, T/C [2]: 85.4% | viability, T/C [14]: 81.6% | viability, T/C [15]: 85.1% | viability, T/C [16]: 86% | viability, T/C [3]: 55.2% | viability, T/C [17]: 58.1% | viability, T/C [4]: 50% | viability, T/C [18]: 64.1% | viability, T/C [19]: 67.2% | viability, T/C [20]: 70% | viability, T/C [5]: 19.1% | viability, T/C [21]: 19.9% | viability, T/C [6]: 17.7% | viability, T/C [22]: 22.1% | viability, T/C [23]: 23.2% | viability, T/C [24]: 18.1% | viability, T/C [7]: 3.57% | viability, T/C [25]: 3.77% | viability, T/C [8]: 3.91% | viability, T/C [26]: 3.85% | viability, T/C [27]: 4.62% | viability, T/C [28]: 7.3% | viability, T/C [9]: 2.42% | viability, T/C [29]: 2.35% | viability, T/C [10]: 2.33% | viability, T/C [30]: 2.58% | viability, T/C [31]: 3.1% | viability, T/C [32]: 2.88% | viability, T/C [11]: 0.21% | viability, T/C [33]: 0.29% | viability, T/C [12]: 0.4% | viability, T/C [34]: 0.43% | viability, T/C [35]: 0.91% | viability, T/C [36]: 0.42%
